These results are taken from patent US6294555A, “1-[(1-Substituted-4-piperidinyl)methyl]-4-piperidine derivative, process for producing the same, medicinal compositions containing the same and intermediates of these compounds” (Dainippon Pharmaceutical Co., Ltd., priority 1998, dated 2001).

The structures appear in SMILES notation.

In general, IC50 refers to the midpoint of a concentration-inhibition curve. A word on the LD50: it is the dose expected to kill half of the subjects tested.

Data set [1] relates to dopamine D2 receptors. The following applies: background art; cited from earlier work.
In data set [2] the test system is 5-HT4 receptors. The following applies: background art, J. Pharmacol. Exp. Ther., 1990, 252, 1378; 1991, 257, 781; cited from earlier work.
For data set [3] the following is noted: background art; cited from earlier work.
For data set [4], the system named is Mice of Std-ddY strain (evacuation). Description: Assay on Evacuation in Mice (fecal pellets, oral). On the set-up: key: -: Inactive; +: Moderately stimulated (P<0.05); ++: Markedly stimulated (p<0.01). The class given is in vivo, mouse (Std-ddY, male). The following applies: 1 mg/kg oral; fecal pellets at 30, 60 and 120 minutes; Dunnett's test; fumarates except numbers marked ** (25, 86: free bases). As to the method:
Male mice of Std-ddY strain weighing 25-30 g were used. Free access to food and water was allowed up to the beginning of the procedure.
The mice (each group: five mice) were placed in a mesh bottom cage for fasting, and they were allowed for acclimation to new environment for about one hour prior to the start of the experiment. A test compound, which was previously suspended in the 0.5% tragacanth solution, was administered orally to the mice at a dose of 1 mg/kg. The fecal pellets were counted and collected at 30, 60 and 120 minutes after the treatment of a test compound, and weighed.
The statistical judgment of efficacy was carried out between the control group and the treated group, and determined by Dunnett's test.

In data set [5] the target is T1, Serotonin 4 (5-HT4) Receptors (Cavia porcellus, UniProt O70528).
T1 construct: the striatum was dissected; from tissue; host or cells: guinea pig (Std-Hartley) brain striatum, membrane fractions
T1 sequence (O70528 whole entry): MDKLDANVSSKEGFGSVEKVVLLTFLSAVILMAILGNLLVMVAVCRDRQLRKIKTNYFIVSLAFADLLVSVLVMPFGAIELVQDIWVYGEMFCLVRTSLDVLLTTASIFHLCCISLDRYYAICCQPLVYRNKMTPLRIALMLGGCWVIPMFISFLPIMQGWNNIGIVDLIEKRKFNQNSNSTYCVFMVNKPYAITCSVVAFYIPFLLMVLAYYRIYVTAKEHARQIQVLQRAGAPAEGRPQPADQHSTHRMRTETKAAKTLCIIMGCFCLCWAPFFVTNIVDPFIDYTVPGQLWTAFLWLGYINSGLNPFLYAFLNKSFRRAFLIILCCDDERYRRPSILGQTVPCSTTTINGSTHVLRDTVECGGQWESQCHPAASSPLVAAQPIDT
Description: Binding Assay on Serotonin 4 (5-HT4) Receptors ([3H]-GR113808, striatum membrane fractions). On the set-up: species or system guinea pig (Std-Hartley). The following applies: 50% inhibition of specific binding of 0.1 nM [3H]-GR113808; 37° C., 30 min; test compounds are fumarates except numbers marked ** (62, 72, 74: free bases). As to the method: Std-Hartley guinea pigs weighing 300-400 g were decapitated, and the brain thereof was immediately taken out, and the striatum was dissected. To the tissue thus obtained was added 15-times volume of Hepes buffer (50 mM, pH7.4, 4° C.), homogenized in a Teflon homogenizer, and centrifuged at 48,000×g at 4° C. for 15 minutes. The pellet was suspended in the same Hepes buffer in a volume of 1 ml per 30 mg of the wet tissues to give receptor membrane fractions.
The reaction was terminated by rapid vacuum filtration and washing (3×4 ml) with ice-cold 50 mM Tris-HCl buffer (pH 7.7) through Whatman GF/B filter paper using a Brandel cell harvester. Prior to the filtration, the filter to be used was presoaked in a 0.1% solution of polyethylenimine for one hour. The radioactivity on the filter was determined with by ACS-II scintillation cocktail by a liquid scintillation counter.

Data set [6] in a line: Acute Toxicity (intravenous, lethality over 7 days). The following applies: mouse, in vivo, mice, observed for 7 days, read-out: 50% lethal dose (LD50). As to the method: Male mice of Std-ddY strain weighing 25-30 g were used in a group of 5 animals. A test compound was suspended in physiological saline solution or 1% lactose solution and administered intravenously to the mice. […] The LD50 doses of the compounds of Examples 1, 10, 12, 18, 20, 21, 25 and 26 were all more than 100 mg/kg.

`COc1cc(N)c(Cl)cc1C(=O)N[C@H]1CCN(CCCOc2ccc(F)cc2)C[C@H]1OC` (relative stereo) [Comp. A, cis-4-amino-5-chloro-N-[1-[3-(4-fluorophenoxy)-propyl]-3-methoxy-4-piperidinyl]-2-methoxybenzamide]: the “inhibitory effects on the central nervous system / dopamine D2 antagonism” value in data set [1] is “inhibitory effects on the central nervous system based on the antagonistic activity against dopamine D2 receptors”. Also, the gastrointestinal motility result in data set [2] was “enhance the gastrointestinal motility by stimulating 5-HT4 receptors”. The “side effects on the heart” value in data set [3] is listed as “side effects on the heart”.
Turning to `COc1cc(N)c(Cl)cc1C(=O)NC1CCN(CC2CCN(C(=O)N(C)C)CC2)CC1` [Example 1, 4-amino-5-chloro-N-[1-(1-dimethylcarbamoyl-4-piperidinylmethyl)-4-piperidinyl]-2-methoxybenzamide], the “Effect (evacuation)” value in data set [4] is “++”. In addition, in data set [5], the IC50 is 11.9 nM. Further, in data set [6], the LD50 at 168 h was greater than 100 mg/kg.
Take `COc1cc(N)c(Cl)cc1C(=O)NC1CCN(CC2CCN(C(=S)N(C)C)CC2)CC1` [Example 10, 4-amino-5-chloro-N-[1-(1-dimethylthiocarbamoyl-4-piperidinylmethyl)-4-piperidinyl]-2-methoxybenzamide]: the “Effect (evacuation)” value in data set [4] is recorded as “++”. The IC50 in data set [5] turned out to be 8 nM. The LD50 at 168 h in data set [6] is greater than 100 mg/kg.
The matching figures for `COc1cc(N)c(Cl)cc1C(=O)NC1CCN(CC2CCN(C(=O)N3CCCC3)CC2)CC1` [Example 12, 4-amino-5-chloro-2-methoxy-N-[1-[1-(1-pyrrolidinecarbonyl)-4-piperidinylmethyl]-4-piperidinyl]benzamide]: “++”, 8.7 nM and greater than 100 mg/kg.
For the molecule `CN(C)C(=O)N1CCC(CN2CCC(NC(=O)c3cc(Cl)c(N)c4c3OCC4)CC2)CC1` [Example 18, 4-amino-5-chloro-N-[1-(1-dimethylcarbamoyl-4-piperidinylmethyl)-4-piperidinyl]-2,3-dihydrobenzo[b]furan-7-carboxamide], in data set [4], the “Effect (evacuation)” value was “++”. Further, in data set [5], the IC50 stood at 3.3 nM. Also, in data set [6], the LD50 at 168 h is greater than 100 mg/kg.
Turning to `CCN(CC)C(=O)N1CCC(CN2CCC(NC(=O)c3cc(Cl)c(N)c4c3OCC4)CC2)CC1` [Example 19, 4-amino-5-chloro-N-[1-(1-diethylcarbamoyl-4-piperidinylmethyl)-4-piperidinyl]-2,3-dihydrobenzo[b]furan-7-carboxamide], the “Effect (evacuation)” value in data set [4] was “++”. In addition, the IC50 in data set [5] was determined as 2.7 nM.
As to `CN(C)C(=S)N1CCC(CN2CCC(NC(=O)c3cc(Cl)c(N)c4c3OCC4)CC2)CC1` [Example 20, 4-amino-5-chloro-N-[1-(1-dimethylthiocarbamoyl-4-piperidinylmethyl)-4-piperidinyl]-2,3-dihydrobenzo[b]furan-7-carboxamide], the “Effect (evacuation)” value in data set [4] is “++”. This molecule yielded an IC50 in data set [5] of 1.3 nM. Further, the LD50 at 168 h in data set [6] was greater than 100 mg/kg.
Turning to `Nc1c(Cl)cc(C(=O)NC2CCN(CC3CCN(C(=O)N4CCCC4)CC3)CC2)c2c1CCO2` [Example 21, 4-amino-5-chloro-N-[1-[1-(1-pyrrolidinecarbonyl)-4-piperidinylmethyl)-4-piperidinyl]-2,3-dihydrobenzo[b]furan-7-carboxamide], the “Effect (evacuation)” value in data set [4] was “++”. In data set [5], this molecule gave an IC50 of 2.4 nM. Also, the LD50 at 168 h in data set [6] was greater than 100 mg/kg.
The matching figures for `CCOc1cc(N)c(Cl)cc1C(=O)NC1CCN(CC2CCN(C(=O)N(C)C)CC2)CC1` [Example 25, 4-amino-5-chloro-N-[1-(1-dimethylcarbamoyl-4-piperidinylmethyl)-4-piperidinyl]-2-ethoxybenzamide]: “++”, 4.2 nM and greater than 100 mg/kg.
The matching figures for `COc1cc(N)c(Br)cc1C(=O)NC1CCN(CC2CCN(C(=O)N(C)C)CC2)CC1` [Example 26, 4-amino-5-bromo-N-[1-(1-dimethylcarbamoyl-4-piperidinylmethyl)-4-piperidinyl]-2-methoxybenzamide]: “+”, 11.5 nM and greater than 100 mg/kg.
Take `CCOc1cc(N)c(Cl)cc1C(=O)NC1CCN(CC2CCN(C(=O)N(CC)CC)CC2)CC1` [Example 27, 4-amino-5-chloro-N-[1-(1-diethylcarbamoyl-4-piperidinylmethyl)-4-piperidinyl]-2-ethoxybenzamide]: the “Effect (evacuation)” value in data set [4] was “++”. In data set [5], the IC50 is 4.4 nM.
Take `CC(C)Oc1cc(N)c(Cl)cc1C(=O)NC1CCN(CC2CCN(C(=O)N(C)C)CC2)CC1` [Example 30, 4-amino-5-chloro-N-[1-(1-dimethylcarbamoyl-4-piperidinylmethyl)-4-piperidinyl]-2-isopropoxybenzamide]: the “Effect (evacuation)” value in data set [4] was “++”. For the same molecule, the IC50 in data set [5] was found to be 4.3 nM.
The like results for `CCOc1cc(N)c(Cl)cc1C(=O)NC1CCN(CC2CCN(C(=O)N3CCCC3)CC2)CC1` [Example 32] were, in that order, “+” and 3.2 nM.
The like results for `COc1cc(N)c(Br)cc1C(=O)NC1CCN(CC2CCN(C(=O)N3CCCC3)CC2)CC1` [Example 34, 4-amino-5-bromo-2-methoxy-N-[1-[1-(1-pyrrolidinecarbonyl)-4-piperidinylmethyl]-4-piperidinyl]benzamide] were, in that order, “++” and 8.9 nM.
For `COc1cc(N)c(Cl)cc1C(=O)NC1CCN(CC2CCN(C(=O)Nc3ccccc3)CC2)CC1` [Example 37, 4-amino-5-chloro-2-methoxy-N-[1-(1-phenylcarbamoyl-4-piperidinylmethyl)-4-piperidinyl]benzamide], in data set [4], the “Effect (evacuation)” value is reported as “++”. The molecule also yielded an IC50 in data set [5] of 1.1 nM.
Turning to `Nc1c(Cl)cc(C(=O)NC2CCN(CC3CCN(C(=O)Nc4ccccc4)CC3)CC2)c2c1CCO2` [Example 52, 4-amino-5-chloro-N-[1-(1-phenylcarbamoyl-4-piperidinylmethyl)-4-piperidinyl]-2,3-dihydrobenzo[b]furan-7-carboxamide], the “Effect (evacuation)” value in data set [4] is given as “++”. The IC50 in data set [5] stood at 0.36 nM.
The matching figures for `CCOc1cc(N)c(Cl)cc1C(=O)NC1CCN(CC2CCN(C(=O)CCOC)CC2)CC1` [Example 81, 4-amino-5-chloro-2-ethoxy-N-[1-[1-(3-methoxypropionyl)-4-piperidinylmethyl]-4-piperidinyl]benzamide]: “++” and 7.7 nM.
In the case of `CCC(=O)CN1CCC(CN2CCC(NC(=O)c3cc(Cl)c(N)cc3OC)CC2)CC1` [Example 86], the “Effect (evacuation)” value in data set [4] was “++”. The molecule further displayed an IC50 in data set [5] of 8.3 nM.
As for `CCN(CC)CCNC(=O)c1cc(Cl)c(N)cc1OC` [metoclopramide], the gastrointestinal motility result in data set [2] is “enhance the gastrointestinal motility by stimulating 5-HT4 receptors”.
